According to PMC10590056, “Design and synthesis of cabotegravir derivatives bearing 1,2,3-triazole and evaluation of anti-liver cancer activity” (Frontiers in Pharmacology, 2023):
Several values for one entry are separate records, joined by “and”; a condition that tells them apart may be missing. Equal entries are not always repeated.

How the values were obtained:
Format in all cases: cell-based
[1] = test system: HeLa cells; assay: MTT assay for cell proliferation, HeLa; design: key to Inhibitory rate: inhibition rate = 1 - mean A490 sample/mean A490 control (fraction); conditions: Hela; for Inhibitory rate / ODtreated/ODcontrol: fraction, per experiment; for Inhibition rate (16μM), 48 h, Hela: preliminary screening, mean±SD, unit not given
Experimental: (§1) HepG2, HeLa, MCF-7, and KYSE-30 cells were grown in a humidified incubator at 37°C with 5% CO2 in DMEM supplemented with 10% fetal bovine serum (FBS), […] streptomycin, and 100 U/mL penicillin.
(§2) When HepG2 cells reached 80% confluence, they were treated with 1 mL of trypsin and resuspended at a density of 10^5 cells/mL. Then, 100 μL of cell suspension was seeded into each well of a 96-well plate and incubated in a humidified atmosphere. The different concentrations of KJ-5 and KJ-12 (0, 1, 2, 4, 8, 16, and 32 μM) were added to each well, and the cells were further incubated for 48 h. Afterward, 20 μL of the MTT solution (5 mg/mL) was added to each well, and incubation was continued for another 4 h. The supernatant was discarded, and 200 μL of the DMSO solution was added to each well. The plate was shaken for 10 min in the dark. The absorbance values were measured at 490 nm using an enzyme-linked detector. The cell inhibition rate (%) was calculated using the following formula: (1-Mean A490 sample/Mean A490 control) × 100%.

[2] = test system: MCF-7 cells; assay: MTT assay for cell proliferation, MCF-7; design: key to Inhibitory rate / Inhibition rate: inhibition rate = 1 - mean A490 sample/mean A490 control (fraction); conditions: for Inhibition rate (16μM), 48 h, MCF-7: preliminary screening, MCF-7, 16 μM, mean±SD, unit not given
Experimental: as §1, §2

[3] = test system: HepG2 cells; assay: MTT assay for cell proliferation and cytotoxicity, HepG2; design: key to Inhibitory rate: inhibition rate = 1 - mean A490 sample/mean A490 control (fraction); conditions: for IC50: HepG2, 48 h, MTT; for Inhibitory rate / ODtreated/ODcontrol: HepG2, fraction, per experiment; for Inhibition rate (16μM), 48 h, HepG2: preliminary screening, HepG2, 16 μM, mean±SD, unit not given
Experimental: as §1, §2

[4] = test system: KYSE-30 cells; assay: MTT assay for cell proliferation, KYSE-30; design: key to Inhibitory rate: inhibition rate = 1 - mean A490 sample/mean A490 control (fraction); conditions: for Inhibitory rate: KYSE-30, given as fraction; for Inhibition rate (16μM), 48 h, KYSE-30: preliminary screening, KYSE-30, 16 μM, mean±SD, unit not given
Experimental: as §1, §2

[5] = MCF-7, fraction, per experiment
[6] = given as fraction, second of three experiments
[7] = given as fraction, third of three experiments
[8] = KYSE-30, first of three experiments
[9] = KYSE-30, second of three experiments
[10] = KYSE-30, third of three experiments

Row | Compound | Inhibitory rate [1] | ODtreated/ODcontrol [1] | Inhibition rate (16μM), 48 h, Hela [1] | Inhibitory rate [2, 5] | ODtreated/ODcontrol [2, 5] | Inhibitory rate [2, 6] | Inhibition rate [2, 7] | Inhibition rate (16μM), 48 h, MCF-7 [2] | ODtreated/ODcontrol ([2]; second of three experiments) | ODtreated/ODcontrol ([2]; third of three experiments) | IC50 [3] | Inhibitory rate [3] | ODtreated/ODcontrol [3] | Inhibition rate (16μM), 48 h, HepG2 [3] | ODtreated/ODcontrol [4, 8] | Inhibitory rate ([4]; first of three experiments) | Inhibitory rate ([4]; second of three experiments) | Inhibitory rate ([4]; third of three experiments) | ODtreated/ODcontrol [4, 9] | Inhibition rate (16μM), 48 h, KYSE-30 [4] | other results
1 | COc1c2n(cc(C(=O)Nc3cccc(-c4cn(-c5cc(C(F)(F)F)ccc5C(F)(F)F)nn4)c3)c1=O)CC1OCC(C)N1C2=O (centres unmarked) [KJ-11] | 0.2491 and 0.2184 and 0.2018 | 0.7509 and 0.7816 and 0.7982 | 22.31±2.4 | 0.1458 | 0.8542 | 0.193 | 0.2016 | 18.01±3.00 | 0.807 | 0.7984 | > 50 µM | 0.2636 and 0.2471 and 0.2291 | 0.7364 and 0.7529 and 0.7709 | 24.66±1.73 | 0.7351 | 0.2649 | 0.225 | 0.2137 | 0.775 | 23.45±2.69 | ODtreated/ODcontrol [4, 10]: 0.7863
2 | COc1c2n(cc(C(=O)Nc3cccc(-c4cn(-c5cccc(Br)c5)nn4)c3)c1=O)CC1OCC(C)N1C2=O (centres unmarked) [KJ-18] | 0.6347 and 0.6562 and 0.6485 | 0.3653 and 0.3438 and 0.3515 | 64.65±1.09 | 0.5861 | 0.4139 | 0.5487 | 0.6055 | 58.01±2.89 | 0.4513 | 0.3945 | 6.57 ± 1.45 µM | 0.7113 and 0.6793 and 0.7366 | 0.2887 and 0.3207 and 0.2634 | 70.90±2.87 | 0.385 | 0.615 | 0.5247 | 0.5847 | 0.4753 | 57.48±4.60 | ODtreated/ODcontrol [4, 10]: 0.4153
3 | COc1c2n(cc(C(=O)Nc3cccc(-c4cn(-c5ccccc5Cl)nn4)c3)c1=O)CC1OCC(C)N1C2=O (centres unmarked) [KJ-19] | 0.6257 and 0.6335 and 0.6346 | 0.3743 and 0.3665 and 0.3654 | 63.13±0.49 | 0.5839 | 0.4161 | 0.531 | 0.6163 | 57.71±4.31 | 0.469 | 0.3837 | 7.5 ± 1.19 µM | 0.7209 and 0.735 and 0.7422 | 0.2791 and 0.265 and 0.2578 | 73.27±1.09 | 0.43 | 0.57 | 0.5211 | 0.5717 | 0.4789 | 55.43±2.87 | ODtreated/ODcontrol [4, 10]: 0.4283
4 | COc1ccccc1-n1cc(-c2cccc(NC(=O)c3cn4c(c(OC)c3=O)C(=O)N3[C@@H](C)CO[C@@H]3C4)c2)nn1 [KJ-7] | 0.3847 and 0.3789 and 0.3067 | 0.6153 and 0.6211 and 0.6933 | 35.68±4.35 | 0.4361 | 0.5639 | 0.4406 | 0.3594 | 41.2±4.56 | 0.5594 | 0.6406 | 21.7 ± 1.07 µM | 0.4068 and 0.4092 and 0.416 | 0.5932 and 0.5908 and 0.584 | 41.07±0.48 | 0.5159 | 0.4841 | 0.4213 | 0.4377 | 0.5787 | 44.77±3.26 | ODtreated/ODcontrol [4, 10]: 0.5623
5 | COc1c2n(cc(C(=O)Nc3cccc(-c4cn(-c5ccccc5C)nn4)c3)c1=O)C[C@H]1OC[C@H](C)N1C2=O [KJ-3] | 0.3938 and 0.4133 and 0.3211 | 0.6062 and 0.5867 and 0.6789 | 37.61±4.86 | 0.4113 | 0.5887 | 0.4254 | 0.3305 | 38.91±5.12 | 0.5746 | 0.6695 | 19.5 ± 0.5 µM | 0.4219 and 0.4728 and 0.4157 | 0.5781 and 0.5272 and 0.5843 | 43.68±3.13 | 0.6097 | 0.3903 | 0.2997 | 0.2805 | 0.7003 | 32.35±5.86 | ODtreated/ODcontrol [4, 10]: 0.7195
6 | COc1c2n(cc(C(=O)Nc3cccc(-c4cn(-c5ccccc5Br)nn4)c3)c1=O)CC1OCC(C)N1C2=O (centres unmarked) [KJ-13] | 0.1723 and 0.1977 and 0.2047 | 0.8277 and 0.8023 and 0.7953 | 19.16±1.71 | 0.2953 | 0.7047 | 0.2534 | 0.2193 | 25.6±3.81 | 0.7467 | 0.7807 | > 50 µM | 0.2436 and 0.2489 and 0.2333 | 0.7564 and 0.7511 and 0.7667 | 24.19±0.79 | 0.7102 | 0.2898 | 0.2542 | 0.2107 | 0.7458 | 25.16±3.96 | ODtreated/ODcontrol [4, 10]: 0.7893
7 | COc1c2n(cc(C(=O)Nc3cccc(-c4cn(-c5ccccc5OC(F)(F)F)nn4)c3)c1=O)C[C@H]1OC[C@H](C)N1C2=O [KJ-9] | 0.7654 and 0.7384 and 0.7732 | 0.2346 and 0.2616 and 0.2268 | 75.9±1.83 | 0.7135 | 0.2865 | 0.7214 | 0.6147 | 68.32±5.95 | 0.2786 | 0.3853 | 5.06 ± 0.06 µM | 0.8207 and 0.8024 and 0.7986 | 0.1793 and 0.1976 and 0.2014 | 80.72±1.18 | 0.3517 | 0.6483 | 0.6765 | 0.5914 | 0.3235 | 63.87±4.34 | ODtreated/ODcontrol [4, 10]: 0.4086
8 | COc1c2n(cc(C(=O)Nc3cccc(-c4cn(-c5ccc(F)cc5)nn4)c3)c1=O)CC1OCC(C)N1C2=O (centres unmarked) [KJ-14] | 0.494 and 0.5678 and 0.4688 | 0.506 and 0.4322 and 0.5312 | 51.02±5.15 | 0.4819 | 0.5181 | 0.5123 | 0.5403 | 51.15±2.92 | 0.4877 | 0.4597 | 9.94 ± 0.78 µM | 0.5683 and 0.5455 and 0.5583 | 0.4317 and 0.4545 and 0.4417 | 55.74±1.15 | 0.5122 | 0.4878 | 0.5323 |  | 0.4677 | 52.98±4.08 | 
9 | C[C@H]1CO[C@@H]2Cn3cc(C(=O)NCc4ccc(F)cc4F)c(=O)c(O)c3C(=O)N12 [Cabotegravir] |  |  |  |  |  |  |  |  |  |  |  |  |  |  |  |  |  |  |  |  | IC50 ([3]; Homo sapiens): > 50 µM
